US4005076A, “Hydrazones of 3-formylrifamycin SV” (Gruppo Lepetit S.p.A., priority 1971, dated 1977)
Values after ≈ are worked out from the molar mass of the structure shown.

Experiments:
[1] = target: T1, mouse embryo RNA-polymerase I (ME-RNA-P1) (Mus musculus, UniProt O35134+P70700); experiment: effect on mouse embryo RNA-polymerase I; assay type: biochemical
T1 construct: mouse embryo RNA-polymerase I (ME-RNA-P1); endogenous in cells; host or cells: mouse embryo cells
Excerpt: (§1) Calf-Thymus DNA. Me-RNA-P1 and ME-RNA-P2 : Single Stranded

[2] = target: T2, sarcoma virus DNA-polymerases (SSV-DNA-P) (Woolly monkey sarcoma virus, UniProt P03359); experiment: effect on activity of SSV-polymerase; assay type: biochemical
T2 construct: sarcoma virus DNA-polymerases (SSV-DNA-P)
Excerpt: Templates used in the Enzymatic Assays were the following: SSV-DNA-P: […]

[3] = tested on: Staphylococcus aureus strain which is resistant to rifampicin (Staph. aureus Tour); experiment: in vitro minimal inhibitory concentration against rifampicin-resistant Staphylococcus aureus strain; assay type: cell-based; settings: for MIC: Staphylococcus aureus, read-out: Minimal inhibitory concentration
Method: In particular, compounds illustrative of the invention at concentrations of about 10 to 20 μg/ml or less inhibit the growth of a Staph. aureus Tour strain resistant to rifampicin.
One of the most important characteristics of the new hydrazones is their activity against rifampicin-resistant Staphylococcus aureus strains. Rifampicin, that is 3-(4-methyl-1-piperazinyl)iminomethylrifamycin SV, disclosed in U.S. Pat. No. 3,342,810, is the most known and widely used rifamycin derivative in therapeutic practice.
The data of the new compounds are compared with those of representative hydrazones disclosed in U.S. Pat. No. 3,342,810.

[4] = target: T3, mouse embryo RNA-polymerase II (ME-RNA-P2) (Mus musculus, UniProt P08775+Q8CFI7); experiment: effect on mouse embryo RNA-polymerase II; assay type: biochemical
T3 construct: mouse embryo RNA-polymerase II (ME-RNA-P2); endogenous in cells; host or cells: mouse embryo cells
Excerpt: as §1

[5] = tested on: mouse embryo DNA-polymerase II (ME-DNA-P2); experiment: effect on mouse embryo DNA-polymerase II; assay type: biochemical; settings: activated Calf-Thymus DNA
Excerpt: (§2) Oligo dT.Poly rA. ME-DNA-P1 and ME-DNA-p2 : activated

[6] = tested on: mouse embryo DNA-polymerase I (ME-DNA-P1); experiment: effect on mouse embryo DNA-polymerase I; assay type: biochemical; settings: activated Calf-Thymus DNA
Excerpt: as §2

[7] = target: T4, RNA-dependent DNA polymerase of murine sarcoma virus (Moloney murine leukemia virus, UniProt P03355); experiment: inhibition of RNA-dependent DNA polymerase of murine sarcoma virus (3H-dTTP incorporation); assay type: biochemical; settings: at a concentration of 2-100 μg/ml or less; 60 min
T4 construct: The virion polymerase was purified 20-40 fold; made in house; host or cells: virions from MSV (Moloney) transformed rat 78A1 cells and MSV (Harvey) transformed mouse MEH cells; disrupted virus or polymerase purified 20-40 fold
Method: The inhibiting activity of the inventive compounds has been tested on RNA-dependent DNA polymerase of murine sarcoma virus (endogenous) and RNA-dependent DNA polymerase activity of purified enzymes. The inhibition was tested according to the methods described by C. Gurgo et al., Nature, New Biology, 229, 111, 1971. The effect of different concentrations of drugs on polymerase activity was determined by following ^3 H-dTTP (tritiated thymine deoxyriboside triphosphate) incorporation into the insoluble fraction. A typical example of the experimental procedures is the following.
Virus was isolated and purified from murine sarcoma virus (Moloney isolate) transformed rat cells (78Al cells) and murine sarcoma virus (Harvey isolate) transformed mouse cells (MEH cells) as previously described (Green et al., Proc. Nat. Acad. Sci. USA 67, 385-393, 1970, Rokutanda et al., Nature, 227, 1026-1028, 1970). The virion polymerase was purified 20-40 fold by incubation of purified virus with 0.5% NP-40 (nonidet P-40) in 0.1 M NaCl, 0.01 M Tris buffer (pH 7.6), 0.001 M EDTA for 5 minutes at room temperature and zonal centrifugation in 15-30% sucrose gradients in 10 mM sodium phosphate buffer (pH 7.4), 2.5 mM MgCl2, 10 mM dithiothreitol, and 5% glycerol for 24 hours at 38,000 rpm in a Spinco SW41 rotor. The peak fractions of enzyme activity (13-17) of 22 fractions collected, were pooled and stored at -70° C. in 30% glycerol.
Enzyme incubation was performed for 1 hour at 37° C. in 100 μl of reaction mixture containing 40 mM Tris buffer (pH 8.0), 5 mM dithiothreitol, 30 mM NaCl, 2.5 mM MgCl2, 0.1 mM dATP, dGTP, dCTP, and 10 μCi of ^3 H-dTTP (12-18 Ci/mmole) as described by Green et al. in Proc. Nat. Acad. Sci. USA 67, 385-393, 1970. The reaction was terminated by the addition of 150 μl of 1N perchloric acid. Calf thymus DNA (100 μg) was added as carrier; the radioactive DNA product was processed as described in the two papers mentioned above. Endogenous RNA-dependent DNA-polymerase activity was measured after the addition of 0.01% NP-40 to purified virus at the time of assay. The DNA-polymerase activity of purified viral polymerase was measured with 2 μg of poly d (A-T) as template and no NP-40.
Rifamycin derivatives of this invention were dissolved in dimethylsulfoxide (DMSO) at a concentration of 5 mg/ml and stored at 4° C. Inhibition of the endogenous RNA-dependent DNA-polymerase activity was tested by adding 2 μl of derivative appropriately diluted in DMSO or 2 μl of DMSO (control) to the assay mixture prior to addition to disrupted virus which contained 15 to 30 μg of viral protein. Enzyme incubation was performed for 60 minutes at 37° C. Inhibition of purified enzyme was tested by pre-incubation of 2 μl of derivative or DMSO with 30 μl of enzyme (1 to 2 μg of protein) for 10 minutes at 37° C.; then 70 μl of substrate mixture were added and the mixture further incubated and processed as described above.

T2 sequence (P03359 642-1310): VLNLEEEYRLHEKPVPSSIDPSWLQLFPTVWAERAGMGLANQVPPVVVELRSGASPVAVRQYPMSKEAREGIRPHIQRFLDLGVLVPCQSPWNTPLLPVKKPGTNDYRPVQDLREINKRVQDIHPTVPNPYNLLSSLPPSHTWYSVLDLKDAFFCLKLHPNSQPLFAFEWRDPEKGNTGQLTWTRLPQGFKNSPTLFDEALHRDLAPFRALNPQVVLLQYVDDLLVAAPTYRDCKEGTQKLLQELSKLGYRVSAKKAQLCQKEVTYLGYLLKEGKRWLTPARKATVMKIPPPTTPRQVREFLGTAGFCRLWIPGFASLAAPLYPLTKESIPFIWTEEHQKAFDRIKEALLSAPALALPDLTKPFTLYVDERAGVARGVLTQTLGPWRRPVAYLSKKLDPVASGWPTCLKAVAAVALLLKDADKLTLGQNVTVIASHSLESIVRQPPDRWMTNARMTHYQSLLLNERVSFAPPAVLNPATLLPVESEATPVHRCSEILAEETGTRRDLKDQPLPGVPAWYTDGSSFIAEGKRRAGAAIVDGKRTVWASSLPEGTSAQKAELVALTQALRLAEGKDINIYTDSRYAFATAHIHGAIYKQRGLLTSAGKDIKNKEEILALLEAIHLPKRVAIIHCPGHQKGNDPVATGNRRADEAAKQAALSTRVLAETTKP

COC1C=COC2(C)Oc3c(C)c(O)c4c(O)c(c(C=NN5CCN(C)CC5)c(O)c4c3C2=O)NC(=O)C(C)=CC=CC(C)C(O)C(C)C(O)C(C)C(OC(C)=O)C1C (stereo not drawn) [Rifampicin, 3-(4-methyl-1-piperazinyl)iminomethylrifamycin SV]
remaining activity at 10 µg ([1]; read-out: % Control Activity of ME-RNA-P1 at 10μg): 77.7%
remaining activity at 100 µg ([1]; read-out: % Control Activity of ME-RNA-P1 at 100μg): 86%
% Control Activity of SSV-DNA-P at 5μg [2]: 94%
% Control Activity of SSV-DNA-P at 10μg [2]: 97%
% Control Activity of SSV-DNA-P at 100μg [2]: 96%
MIC [3]: > 100 µg/mL
Minimal inhibitory concentration ([3]; in vitro, Staphylococcus aureus strain resistant to rifampicin): > 100 µg/mL
remaining activity at 10 µg ([4]; read-out: % Control Activity of ME-RNA-P2 at 10μg): 81%
remaining activity at 100 µg ([4]; read-out: % Control Activity of ME-RNA-P2 at 100μg): 99%
% Control Activity of ME-DNA-P2 at 10μg ([5]; 10μg): 96%
% Control Activity of ME-DNA-P2 at 100μg ([5]; 100μg): 16%
% Control Activity of ME-DNA-P1 at 10μg ([6]; 10μg): 99%
% Control Activity of ME-DNA-P1 at 100μg ([6]; 100μg): 56%

COC1C=COC2(C)Oc3c(C)c(O)c4c(O)c(c(C=NNC5CCCCCC5)c(O)c4c3C2=O)NC(=O)C(C)=CC=CC(C)C(O)C(C)C(O)C(C)C(OC(C)=O)C1C (stereo not drawn) [Example 13]
MIC [3]: 10 µg/mL (≈ 12 µM)
incorporation of H3-dTTP relative to that found in the control tests [7]: less than 10%

COC1C=COC2(C)Oc3c(C)c(O)c4c(O)c(c(C=NN(c5ccccc5)c5ccccc5)c(O)c4c3C2=O)NC(=O)C(C)=CC=CC(C)C(O)C(C)C(O)C(C)C(OC(C)=O)C1C (stereo not drawn) [Example 11]
MIC [3]: 2 µg/mL (≈ 2.24 µM)
incorporation of H3-dTTP relative to that found in the control tests [7]: less than 10%

COC1C=COC2(C)Oc3c(C)c(O)c4c(O)c(c(C=NNC5CCCCCCC5)c(O)c4c3C2=O)NC(=O)C(C)=CC=CC(C)C(O)C(C)C(O)C(C)C(OC(C)=O)C1C (stereo not drawn) [Example 14]
MIC [3]: 5 µg/mL (≈ 5.88 µM)
incorporation of H3-dTTP relative to that found in the control tests [7]: less than 10%

COC1C=COC2(C)Oc3c(C)c(O)c4c(O)c(c(C=NN(Cc5ccccc5)c5ccccc5)c(O)c4c3C2=O)NC(=O)C(C)=CC=CC(C)C(O)C(C)C(O)C(C)C(OC(C)=O)C1C (stereo not drawn) [Example 15]
MIC [3]: 2 µg/mL (≈ 2.21 µM)
incorporation of H3-dTTP relative to that found in the control tests [7]: less than 10%
